Measurements from patent US12091426B2, “Bifunctional degraders of hematopoietic progenitor kinase and therapeutic uses thereof” (Nurix Therapeutics, Inc., priority 2021, dated 2024).

Target: T1, HPK1 (Homo sapiens, UniProt Q92918)
T1 construct: A HiBiT tag was introduced by CRISPR on the N terminus of HPK1 in Jurkat cells; host or cells: Jurkat cells (ATCC TIB-152), monoclonal line with CRISPR knock-in of HiBiT at the endogenous HPK1 locus
Assay: HPK1 Cellular HiBit Degradation Assay
Format: cell-based
Settings: HiBiT HPK1 Jurkat cells, 24 hrs; for DC50: concentration at which 50% of HPK1 was remaining, read-out: DC50 Category; for Dmax: Jurkat, read-out: Dmax Category; for Dmax / Dmax Category: maximum degradation vs DMSO vehicle control
Summary of the method: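 HPK1 levels are read by HiBiT luminescence after 24 h exposure of HiBiT-knock-in Jurkat cells to compound at 10 uM–0.1 nM final (11 points). Relative to DMSO (100%), DC50 is the concentration leaving 50% HPK1 from a variable-slope fit, and Dmax is 100 minus minimum remaining. Viability checked in-plate.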

T1 sequence (Q92918 whole entry): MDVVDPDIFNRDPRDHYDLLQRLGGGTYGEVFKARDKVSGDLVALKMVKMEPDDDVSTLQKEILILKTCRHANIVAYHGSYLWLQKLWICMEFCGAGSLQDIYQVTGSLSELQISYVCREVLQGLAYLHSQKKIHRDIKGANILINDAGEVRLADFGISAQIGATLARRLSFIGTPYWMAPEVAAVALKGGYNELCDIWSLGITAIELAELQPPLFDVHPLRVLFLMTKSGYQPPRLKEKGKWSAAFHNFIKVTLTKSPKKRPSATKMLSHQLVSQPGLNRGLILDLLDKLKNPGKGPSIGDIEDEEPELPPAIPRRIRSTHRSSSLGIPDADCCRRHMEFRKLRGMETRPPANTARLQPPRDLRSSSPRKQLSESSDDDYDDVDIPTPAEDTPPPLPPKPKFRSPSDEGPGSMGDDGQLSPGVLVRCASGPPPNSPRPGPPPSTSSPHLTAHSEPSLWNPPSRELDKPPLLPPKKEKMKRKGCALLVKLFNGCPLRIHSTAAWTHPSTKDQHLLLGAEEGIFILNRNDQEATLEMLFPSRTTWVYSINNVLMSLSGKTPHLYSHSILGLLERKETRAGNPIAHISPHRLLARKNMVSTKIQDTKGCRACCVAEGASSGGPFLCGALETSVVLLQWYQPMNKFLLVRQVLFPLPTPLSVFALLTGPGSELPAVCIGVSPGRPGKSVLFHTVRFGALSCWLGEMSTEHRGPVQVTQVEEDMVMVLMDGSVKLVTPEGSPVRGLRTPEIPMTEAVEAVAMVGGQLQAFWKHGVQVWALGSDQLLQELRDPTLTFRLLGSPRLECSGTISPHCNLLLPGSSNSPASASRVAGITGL

Row | SMILES | DC50 [nM] | Dmax [%] | Dmax Category
1 | CC(C)n1cnc2cc(-c3ccc4c(c3)N([C@H]3C[C@@H](N5CCCCC5)C3)C(=O)C43CCN(C(=O)[C@H]4CC[C@H](C(=O)N5CCC(N(C)c6ccc(C7CCC(=O)NC7=O)cn6)CC5)CC4)CC3)nc(Nc3ccccc3F)c21 (mixture of isomers) [Example 138, (3RS)-3-{6-[methyl({1-[(1R,4R)-4-[(6-{4-[(2-fluorophenyl)amino]-3-(propan-2-yl)-3H-imidazo[4,5-c]pyridin-6-yl}-2-oxo-1-[(1S,3S)-3-(piperidin-1-yl)cyclobutyl]-1,2-dihydrospiro[indole-3,4′-piperidin]-1′-yl)carbonyl]cyclohexanecarbonyl]piperidin-4-yl})amino]pyridin-3-yl}piperidine-2,6-dione] | < 100 | > 85 | –
2 | CC(C)n1cnc2cc(-c3ccc4c(c3)N([C@H]3C[C@@H](N5CCCCC5)C3)C(=O)C43CCN(C(=O)[C@H]4CC[C@H](C(=O)N5CCC(N(C)c6ccc(C7CCC(=O)NC7=O)cn6)CC5)CC4)CC3)nc(Nc3ccncc3F)c21 (mixture of isomers) [Example 139, (3RS)-3-{6-[methyl({1-[(1R,4R)-4-[(6-{4-[(3-Fluoropyridin-4-yl)amino]-3-(propan-2-yl)-3H-imidazo[4,5-c]pyridin-6-yl}-2-oxo-1-[(1S,3S)-3-(piperidin-1-yl)cyclobutyl]-1,2-dihydrospiro[indole-3,4′-piperidin]-1′-yl)carbonyl]cyclohexanecarbonyl]piperidin-4-yl})amino]pyridin-3-yl}piperidine-2,6-dione] | < 100 | 70 to 85 | –
3 | CC(C)n1cnc2cc(-c3ccc4c(c3)N([C@H]3C[C@@H](N5CCCCC5)C3)C(=O)C43CCN(C(=O)c4ccc(C(=O)N5CCC(N(C)c6ccc(C7CCC(=O)NC7=O)cn6)CC5)cc4)CC3)nc(Nc3ccccc3F)c21 (mixture of isomers) [Example 140, (3RS)-3-{6-[(1-{4-[(6-{4-[(2-fluorophenyl)amino]-3-(propan-2-yl)-3H-imidazo[4,5-c]pyridin-6-yl}-2-oxo-1-[(1S,3S)-3-(piperidin-1-yl)cyclobutyl]-1,2-dihydrospiro[indole-3,4′-piperidin]-1′-yl)carbonyl]benzoyl}piperidin-4-yl)(methyl)amino]pyridin-3-yl}piperidine-2,6-dione] | 500 to 1000 | 50 to 70 | –
4 | CC(C)n1cnc2cc(-c3ccc4c(c3)N([C@H]3C[C@@H](N5CCCCC5)C3)C(=O)C43CCN(C(=O)c4ccc(C(=O)N(C)C5CCN(c6ccc(C7CCC(=O)NC7=O)cn6)CC5)cc4)CC3)nc(Nc3ccccc3F)c21 (mixture of isomers) [Example 141, N-(1-{5-[(3RS)-2,6-dioxopiperidin-3-yl]pyridin-2-yl}piperidin-4-yl)-4-[(6-{4-[(2-Fluorophenyl)amino]-3-(propan-2-yl)-3H-imidazo[4,5-c]pyridin-6-yl}-2-oxo-1-[(1S,3S)-3-(piperidin-1-yl)cyclobutyl]-1,2-dihydrospiro[indole-3,4′-piperidin]-1′-yl)carbonyl]-N-methylbenzamide] | 500 to 1000 | 50 to 70 | –
5 | Cc1cc(F)c(Nc2nc(-c3ccc4c(c3)N([C@H]3C[C@@H](N5CCCCC5)C3)C(=O)C43CCN(C(=O)C4CCN(CC5CCN(c6cccc7c6n(C)c(=O)n7C6CCC(=O)NC6=O)CC5)CC4)CC3)cc3ncn(C(C)C)c23)cc1C(=O)NC(C)C (mixture of isomers) [Example 142, 5-{[6-(1′-{1-[(1-{1-[(3RS)-2,6-dioxopiperidin-3-yl]-3-methyl-2-oxo-2,3-dihydro-1H-1,3-benzodiazol-4-yl}piperidin-4-yl)methyl]piperidine-4-carbonyl}-2-oxo-1-[(1S,3S)-3-(piperidin-1-yl)cyclobutyl]-1,2-dihydrospiro[indole-3,4′-piperidin]-6-yl)-3-(propan-2-yl)-3H-imidazo[4,5-c]pyridin-4-yl]amino}-4-fluoro-2-methyl-N-(propan-2-yl)benzamide] | 500 to 1000 | 70 to 85 | –
6 | CC(C)n1cnc2cc(-c3ccc4c(c3)N([C@H]3C[C@@H](N5CCCCC5)C3)C(=O)C43CCN(C(=O)[C@H]4CCN(C(=O)[C@H]5CC[C@@H](Nc6cccc7c6n(C)c(=O)n7C6CCC(=O)NC6=O)CC5)C4)CC3)nc(Nc3ccccc3F)c21 (mixture of isomers) [Example 143, (3RS)-3-(3-methyl-2-oxo-4-{[(1R,4R)-4-[(3S)-3-[(6-{4-[(2-fluorophenyl)amino]-3-(propan-2-yl)-3H-imidazo[4,5-c]pyridin-6-yl}-2-oxo-1-[(1S,3S)-3-(piperidin-1-yl)cyclobutyl]-1,2-dihydrospiro[indole-3,4′-piperidin]-1′-yl)carbonyl]pyrrolidine-1-carbonyl]cyclohexyl]amino}-2,3-dihydro-1H-1,3-benzodiazol-1-yl)piperidine-2,6-dione] | < 100 | 50 to 70 | –
7 | CC(C)n1cnc2cc(-c3ccc4c(c3)N([C@H]3C[C@@H](N5CCCCC5)C3)C(=O)C43CCN(C(=O)[C@@H]4CCN(C(=O)[C@H]5CC[C@H](Nc6cccc7c6n(C)c(=O)n7C6CCC(=O)NC6=O)CC5)C4)CC3)nc(Nc3ccccc3F)c21 (mixture of isomers) [Example 144, (3RS)-3-(3-methyl-2-oxo-4-{[(1R,4R)-4-[(3R)-3-[(6-{4-[(2-fluorophenyl)amino]-3-(propan-2-yl)-3H-imidazo[4,5-c]pyridin-6-yl}-2-oxo-1-[(1S,3S)-3-(piperidin-1-yl)cyclobutyl]-1,2-dihydrospiro[indole-3,4′-piperidin]-1′-yl)carbonyl]pyrrolidine-1-carbonyl]cyclohexyl]amino}-2,3-dihydro-1H-1,3-benzodiazol-1-yl)piperidine-2,6-dione] | < 100 | 50 to 70 | –
8 | Cc1cc(F)c(Nc2nc(-c3ccc4c(c3)N([C@H]3C[C@@H](N5CCCCC5)C3)C(=O)C43CCN(C(=O)c4cc(C(=O)N5CCN(c6ccc7c(c6)C(=O)N(C6CCC(=O)NC6=O)C7=O)CC5)n(C)n4)CC3)cc3ncn(C(C)C)c23)cc1C(=O)NC(C)C (mixture of isomers) [Example 145, 5-[(6-{1′-[5-(4-{2-[(3RS)-2,6-dioxopiperidin-3-yl]-1,3-dioxo-2,3-dihydro-1H-isoindol-5-yl}piperazine-1-carbonyl)-1-methyl-1H-pyrazole-3-carbonyl]-2-oxo-1-[(1S,3S)-3-(piperidin-1-yl)cyclobutyl]-1,2-dihydrospiro[indole-3,4′-piperidin]-6-yl}-3-(propan-2-yl)-3H-imidazo[4,5-c]pyridin-4-yl)amino]-4-fluoro-2-methyl-N-(propan-2-yl)benzamide] | 500 to 1000 | 50 to 70 | –
9 | CC(C)n1cnc2cc(-c3ccc4c(c3)N([C@H]3C[C@@H](N5CCCCC5)C3)C(=O)C43CCN(C(=O)c4cc(C(=O)N5CCN(c6ccc7c(c6)C(=O)N(C6CCC(=O)NC6=O)C7=O)CC5)n(C)n4)CC3)nc(Nc3ccccc3F)c21 (mixture of isomers) [Example 146, 2-[(3RS)-2,6-dioxopiperidin-3-yl]-5-(4-{3-[(6-{4-[(2-fluorophenyl)amino]-3-(propan-2-yl)-3H-imidazo[4,5-c]pyridin-6-yl}-2-oxo-1-[(1S,3S)-3-(piperidin-1-yl)cyclobutyl]-1,2-dihydrospiro[indole-3,4′-piperidin]-1′-yl)carbonyl]-1-methyl-1H-pyrazole-5-carbonyl}piperazin-1-yl)-2,3-dihydro-1H-isoindole-1,3-dione] | 100 to 500 | 70 to 85 | –
10 | CC(C)n1cnc2cc(-c3ccc4c(c3)N([C@H]3C[C@@H](N5CCCCC5)C3)C(=O)C43CCN(C(=O)[C@]4(C)CCN(C(=O)C5CCN(c6ccc(C7CCC(=O)NC7=O)cc6F)CC5)C4)CC3)nc(NC3CC3)c21 (mixture of isomers) [Example 147, (3RS)-3-(4-{4-[(3R)-3-({6-[4-(cyclopropylamino)-3-(propan-2-yl)-3H-imidazo[4,5-c]pyridin-6-yl]-2-oxo-1-[(1S,3S)-3-(piperidin-1-yl)cyclobutyl]-1,2-dihydrospiro[indole-3,4′-piperidin]-1′-yl}carbonyl)-3-methylpyrrolidine-1-carbonyl]piperidin-1-yl}-3-fluorophenyl)piperidine-2,6-dione] | 100 to 500 | > 85 | –
11 | Cc1cc(C2CCC(=O)NC2=O)cnc1N1CCC(C(=O)N2CCC(C)(C(=O)N3CCC4(CC3)C(=O)N(C3CC(N5CCCCC5)C3)c3cc(-c5cc6ncn(C(C)C)c6c(NC6CC6)n5)ccc34)CC2)CC1 (racemic) [Example 148, (3RS)-3-(6-{4-[4-({6-[4-(cyclopropylamino)-3-(propan-2-yl)-3H-imidazo[4,5-c]pyridin-6-yl]-2-oxo-1-[(1S,3S)-3-(piperidin-1-yl)cyclobutyl]-1,2-dihydrospiro[indole-3,4′-piperidin]-1′-yl}carbonyl)-4-methylpiperidine-1-carbonyl]piperidin-1-yl}-5-Methylpyridin-3-yl)piperidine-2,6-dione] | < 100 | – | B (B: >70%-<85%)
12 | CC(C)n1cnc2cc(-c3ccc4c(c3)N(C3CC(N5CCCCC5)C3)C(=O)C43CCN(C(=O)CC4(C)CCN(C(=O)C5CCN(c6ccc(C7CCC(=O)NC7=O)cn6)CC5)CC4)CC3)nc(NC3CC3)c21 (racemic) [Example 149, (3RS)-3-(6-{4-[4-(2-{6-[4-(cyclopropylamino)-3-(propan-2-yl)-3H-imidazo[4,5-c]pyridin-6-yl]-2-oxo-1-[(1S,3S)-3-(piperidin-1-yl)cyclobutyl]-1,2-dihydrospiro[indole-3,4′-piperidin]-1′-yl}-2-oxoethyl)-4-methylpiperidine-1-carbonyl]piperidin-1-yl}pyridin-3-yl)piperidine-2,6-dione] | < 100 | – | B (B: >70%-<85%)
